Measured values published in US20240108610A1, “RECTAL ADMINISTRATION OF ROFLUMILAST FOR THE TREATMENT OF CROHN'S DISEASE” (King Abdulaziz University, priority 2022, published 2024).

Legend:
TNF-α [1] = assay: TNF-α immunostaining of colonic sections; format: in vivo, rat
Procedure: Chronic colitis was induced by weekly rectal injections of increasing doses of TNBS over 6 weeks (15, 30, 45, 60, 60, and 60 mg from day 0 to day 35), as previously described (4,12). Briefly, after food deprivation for 24 h, rats were anesthetized with an intraperitoneal injection of 1% isoflurane. TNBS was dissolved in ethanol (50%) and instilled into the colon using a cannula (0.25 mL), and then the rats were held upside down for 3 min to prevent escape of the intracolonic TNBS. Roflumilast was dissolved in dimethyl sulfoxide and diluted in 0.5% carboxymethyl cellulose sodium to a final concentration of 5.0 mg·kg^−1·day^−1 as previously described (13). Five groups of rats (n=8) were established: normal control (NC group), TNBS-treated (TNBS group, positive control), and three TNBS-treated groups that received oral sulfasalazine (SS group, 500 mg/kg) (14), oral roflumilast (by gastric gavage, OR group, 5 mg/kg), or rectal roflumilast (RR group, 5 mg/kg). Treatments were administered once daily in a volume of 200 μL for 15 days starting 48 h after the induction of colitis (from day 37) (15), and the control rats received equal amounts of vehicle. At the end of the treatment period, the rats were evaluated with the colitis activity score. To detect the effects of the treatments on systemic inflammatory processes, blood was collected for measurements of the proinflammatory mediators TNF-α, IL-2, and IL-6. At the end of the 15-day treatment period, the rats were sacrificed by cervical dislocation, and the colon was isolated, cleaned of feces, and measured for weight and length. Colonic myeloperoxidase (MPO) activity and glutathione (GSH) and malonaldehyde (MDA) levels were measured. The colon was examined macroscopically for gross changes and microscopically in sections stained with hematoxylin and eosin (H&E), Masson trichrome, and Periodic Acid Schiff (PAS) stains as well as KI-67 and TNF-α immunostaining. […] This primary antibody was detected using avidin-biotin peroxidase detection solution (Dako), and the signal was visualized using diaminobenzidine. […]

TNF-α [2] = assay: Serum TNF-α ELISA in TNBS-induced colitis; format: in vivo, rat; details: means±SE, n = 8
Procedure: Chronic colitis was induced by weekly rectal injections of increasing doses of TNBS over 6 weeks (15, 30, 45, 60, 60, and 60 mg from day 0 to day 35), as previously described (4,12). Briefly, after food deprivation for 24 h, rats were anesthetized with an intraperitoneal injection of 1% isoflurane. TNBS was dissolved in ethanol (50%) and instilled into the colon using a cannula (0.25 mL), and then the rats were held upside down for 3 min to prevent escape of the intracolonic TNBS. Roflumilast was dissolved in dimethyl sulfoxide and diluted in 0.5% carboxymethyl cellulose sodium to a final concentration of 5.0 mg·kg^−1·day^−1 as previously described (13). Five groups of rats (n=8) were established: normal control (NC group), TNBS-treated (TNBS group, positive control), and three TNBS-treated groups that received oral sulfasalazine (SS group, 500 mg/kg) (14), oral roflumilast (by gastric gavage, OR group, 5 mg/kg), or rectal roflumilast (RR group, 5 mg/kg). Treatments were administered once daily in a volume of 200 μL for 15 days starting 48 h after the induction of colitis (from day 37) (15), and the control rats received equal amounts of vehicle. At the end of the treatment period, the rats were evaluated with the colitis activity score. To detect the effects of the treatments on systemic inflammatory processes, blood was collected for measurements of the proinflammatory mediators TNF-α, IL-2, and IL-6. At the end of the 15-day treatment period, the rats were sacrificed by cervical dislocation, and the colon was isolated, cleaned of feces, and measured for weight and length. Colonic myeloperoxidase (MPO) activity and glutathione (GSH) and malonaldehyde (MDA) levels were measured. The colon was examined macroscopically for gross changes and microscopically in sections stained with hematoxylin and eosin (H&E), Masson trichrome, and Periodic Acid Schiff (PAS) stains as well as KI-67 and TNF-α immunostaining. Blood was collected through cardiac puncture. The serum was obtained and stored at −80° C. until analysis. […]

[3] = oral, once daily for 15 days, sulfasalazine 500 mg/kg, roflumilast 5 mg/kg
[4] = rectal, 5 mg/kg once daily for 15 days
[5] = oral, once daily for 15 days, SS 500 mg/kg, OR 5 mg/kg

Row | Compound | TNF-α immunoexpression in the mucosa (TNF-α [1]; [3]) | TNF-α immunoexpression in the mucosa (TNF-α [1]; [4]) | serum level of TNF-α (TNF-α [2]; [5]) | serum level of TNF-α (TNF-α [2]; [4])
1 | O=C(Nc1c(Cl)cncc1Cl)c1ccc(OC(F)F)c(OCC2CC2)c1 [roflumilast] | moderately positive reactions | strong positive reactions | 38.87 ± 2.33^a, b, f pg/mL | 79.37 ± 1.88^a, c, e pg/mL
2 | O=C(O)c1cc(/N=N/c2ccc(S(=O)(=O)Nc3ccccn3)cc2)ccc1O [sulfasalazine] | very faint positive reactions |  | 28.93 ± 0.5^b, d pg/mL | 
